Data: patent US9993494B2, “Compositions and methods for treating fibrotic disease” (eFFECTOR Therapeutics, Inc., priority 2014, dated 2018)

Tested on: normal human lung fibroblasts
Assay: Ribosomal profiling: translational efficiency in TGFβ-treated fibroblasts
Assay type: cell-based
In short: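 Genome-wide RPF and total RNA libraries (ARTseq, RNA-Seq) were made from lysates of cycloheximide-treated, PBS-washed cells. After trimming and human-genome mapping, per-gene coding-region counts were compared between RPF and RNA for translational efficiency. Genes scoring low in either fraction were dropped.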

With TGFβ the “Log2 TE RPS6KA5” value (ENSG00000100784, 5 replicates) was −1.431, the “Log2 TE CEP192” value (ENSG00000101639, 5 replicates) was −1.192 and the “change in translational profile of CEP192 caused by TGFβ” value (ENSG00000101639, Control vs. TGFβ) was “C (C = <−1.0 to −1.5)”. The “change in translational profile of AMMECR1 caused by TGFβ” value (ENSG00000101935, Control vs. TGFβ) was “D (D = <1.0 to 1.5)”, the “change in translational profile of PLP2 caused by TGFβ” value (ENSG00000102007, Control vs. TGFβ) was “D (D = <1.0 to 1.5)” and the “Log2 TE SGK3” value (ENSG00000104205, 5 replicates) was −1.011. For the same substance, the “Log2 TE TRPA1” value (ENSG00000104321, 5 replicates) was −1.256, the “Log2 TE EIF3E” value (ENSG00000104408, 5 replicates) was 1.469 and the “change in translational profile of EIF3E caused by TGFβ” value (ENSG00000104408, Control vs. TGFβ) was “E (E = <1.5 to 2.5)”. For the same substance, the “Log2 TE EEF1D” value (ENSG00000104529, 5 replicates) was 1.619, the “change in translational profile of EEF1D caused by TGFβ” value (ENSG00000104529, Control vs. TGFβ) was “E (E = <1.5 to 2.5)” and the “change in translational profile of C19orf53 caused by TGFβ” value (ENSG00000104979, Control vs. TGFβ) was “D (D = <1.0 to 1.5)”. The “Log2 TE RPS16” value (ENSG00000105193, 5 replicates) was 1.989, the “Log2 TE RPS19” value (ENSG00000105372, 5 replicates) was 1.55 and the “Log2 TE GLTSCR2” value (ENSG00000105373, 5 replicates) was 2.067. For the same substance, the “change in translational profile of GLTSCR2 caused by TGFβ” value (ENSG00000105373, Control vs. TGFβ) was “E (E = <1.5 to 2.5)”, the “change in translational profile of RAB3D caused by TGFβ” value (ENSG00000105514, Control vs. TGFβ) was “B (B = <−1.5 to −2.5)” and the “Log2 TE RPL18A” value (ENSG00000105640, 5 replicates) was 1.669. The “change in translational profile of RPL18A caused by TGFβ” value (ENSG00000105640, Control vs. TGFβ) was “E (E = <1.5 to 2.5)”, the “Log2 TE COMP” value (ENSG00000105664, 5 replicates) was 1.317 and the “change in translational profile of COMP caused by TGFβ” value (ENSG00000105664, Control vs. TGFβ) was “E (E = <1.5 to 2.5)”. For the same substance, the “Log2 TE GLCCI1” value (ENSG00000106415, 5 replicates) was −1.842, the “change in translational profile of GLCCI1 caused by TGFβ” value (ENSG00000106415, Control vs. TGFβ) was “B (B = <−1.5 to −2.5)” and the “Log2 TE CORO2A” value (ENSG00000106789, 5 replicates) was 1.212. For the same substance, the “change in translational profile of CORO2A caused by TGFβ” value (ENSG00000106789, Control vs. TGFβ) was “E (E = <1.5 to 2.5)”, the “change in translational profile of GDF10 caused by TGFβ” value (ENSG00000107623, Control vs. TGFβ) was “C (C = <−1.0 to −1.5)” and the “Log2 TE RPL28” value (ENSG00000108107, 5 replicates) was 1.869. The “change in translational profile of RPL28 caused by TGFβ” value (ENSG00000108107, Control vs. TGFβ) was “E (E = <1.5 to 2.5)”, the “Log2 TE RPL19” value (ENSG00000108298, 5 replicates) was 1.075 and the “change in translational profile of RPL19 caused by TGFβ” value (ENSG00000108298, Control vs. TGFβ) was “D (D = <1.0 to 1.5)”. The “Log2 TE RASD1” value (ENSG00000108551, 5 replicates) was 1.836, the “change in translational profile of RASD1 caused by TGFβ” value (ENSG00000108551, Control vs. TGFβ) was “E (E = <1.5 to 2.5)” and the “Log2 TE SLC16A6” value (ENSG00000108932, 5 replicates) was −1.3497. The “change in translational profile of NAT9 caused by TGFβ” value (ENSG00000109065, Control vs. TGFβ) was “D (D = <1.0 to 1.5)”, the “Log2 TE INPP4B” value (ENSG00000109452, 5 replicates) was −1.569 and the “Log2 TE RPL34” value (ENSG00000109475, 5 replicates) was 1.608. The “change in translational profile of RPL34 caused by TGFβ” value (ENSG00000109475, Control vs. TGFβ) was “E (E = <1.5 to 2.5)”, the “Log2 TE NEIL3” value (ENSG00000109674, 5 replicates) was −2.63 and the “Log2 TE CRYAB” value (ENSG00000109846, 5 replicates) was 1.107. For the same substance, the “change in translational profile of CRYAB caused by TGFβ” value (ENSG00000109846, Control vs. TGFβ) was “D (D = <1.0 to 1.5)”, the “Log2 TE RPS13” value (ENSG00000110700, 5 replicates) was 1.539 and the “Log2 TE KRT18” value (ENSG00000111057, 5 replicates) was 1.811. For the same substance, the “Log2 TE GAPDH” value (ENSG00000111640, 5 replicates) was 1.263, the “change in translational profile of GAPDH caused by TGFβ” value (ENSG00000111640, Control vs. TGFβ) was “E (E = <1.5 to 2.5)” and the “Log2 TE C12orf57” value (ENSG00000111678, 5 replicates) was 1.173. For the same substance, the “change in translational profile of C12orf57 caused by TGFβ” value (ENSG00000111678, Control vs. TGFβ) was “D (D = <1.0 to 1.5)”, the “Log2 TE BVES” value (ENSG00000112276, 5 replicates) was 1.173 and the “Log2 TE RPS12” value (ENSG00000112306, 5 replicates) was 1.642. The “change in translational profile of MDFI caused by TGFβ” value (ENSG00000112559, Control vs. TGFβ) was “A (A = <−2.5)”, the “Log2 TE HBEGF” value (ENSG00000113070, 5 replicates) was 1.088 and the “change in translational profile of HBEGF caused by TGFβ” value (ENSG00000113070, Control vs. TGFβ) was “D (D = <1.0 to 1.5)”. For the same substance, the “Log2 TE THG1L” value (ENSG00000113272, 5 replicates) was 1.155, the “Log2 TE RPL24” value (ENSG00000114391, 5 replicates) was 1.304 and the “change in translational profile of RPL24 caused by TGFβ” value (ENSG00000114391, Control vs. TGFβ) was “E (E = <1.5 to 2.5)”. The “Log2 TE EEF1B2” value (ENSG00000114942, 5 replicates) was 1.434, the “change in translational profile of EEF1B2 caused by TGFβ” value (ENSG00000114942, Control vs. TGFβ) was “E (E = <1.5 to 2.5)” and the “Log2 TE IFIH1” value (ENSG00000115267, 5 replicates) was −1.416. For the same substance, the “change in translational profile of IFIH1 caused by TGFβ” value (ENSG00000115267, Control vs. TGFβ) was “B (B = <−1.5 to −2.5)” and the “Log2 TE RPS15” value (ENSG00000115268, 5 replicates) was 1.3.
